Literature values as cited in patent US10434065B2, “Microfluidic liposome synthesis, purification and active drug loading” (University of Maryland, College Park, priority 2013, dated 2019).
Counter-ions that a name gives are not always drawn.

- pKa: 10.4
SMILES: CN(C)c1ccc2cc3ccc(N(C)C)cc3nc2c1 [AO, Acridine Orange hydrochloride]
